Results as given in US20040062848A1, “Lapactic agent” (priority 2002, published 2004).

Assay: Acute toxicity (LD50)
Settings: in vivo

Question: For ε-polylysine hydrochloride, which “acute toxicity in LD50” value is on record?
Answer: ≥ 5000 mg/kg
